# Test results from patent US10611748B2, “Xanthone derivatives for the treatment of hepatitis B virus disease” (Hoffmann-La Roche Inc., priority 2017, dated 2020).
# What was measured:
# [1] = system: extracellular HBeAg level (surrogate marker for cccDNA) in HepDES19 cells; assay: HepDES19 primary screen assay; type: cell-based, HBV; conditions: Hepatitis B virus, 120 h, 5 days compound incubation, HBeAg ELISA
# Text: The assay was employed to primarily screen for novel cccDNA inhibitors. HepDES19 is an engineered cell line which contains a 1.1 unit length HBV genome, and pgRNA transcription from the transgene is controlled by Tetracycline (Tet). In the absence of Tet, pgRNA transcription will be induced, but HBV e antigen (HBeAg) could not be produced from this pgRNA due to the fact that the very short leader sequence before the HBeAg start codondisrupted the start codon. Only after cccDNA is formed, the missing leader sequence and start codon mutation would be restored from the 3′-terminal redundancy of pgRNA, and then HBeAg could be synthesized. Therefore, HBeAg could be used as a surrogate marker for cccDNA (Zhou, T. et al., Antiviral Res(2006), 72(2), 116-124; Guo, H. et al., J. Virol (2007), 81(22), 12472-12484).
# HepDES19 cells were seeded at 2×10^6 cells per T150 flask and cultured with the culture medium (Dulbecco's Modified Eagle Medium: Nutrient Mixture F-12 (DMEM:F12, Gibco Cat. 11320-82), 10% Fetal Bovine Serum (FBS, Clontech Cat. 631101), 0.1 mM Non-Essential Amino Acids Solution (NEAA, Gibco Cat. 11140-050), 50 μg/mL Penicillin-Streptomycin (PS, Invitrogen Cat. 15140-163), 500 μg/mL Geneticin (G418, Invitrogen Cat. 10131-027) containing 3 μg/mL Tet (Sigma, Cat. 87128) for 5 days. Cells were then seeded at 4×10^6 cells per T150 in the same culture medium as described above in the absence of Tet for 8 days. Cells were then harvested and frozen at density of 2×10^6 cells per mL. For compound testing, the frozen cells were thawed and seeded into 96-well plates at a density of 6×10^4 cells per well. At 24 hrs after seeding, half log serial dilutions of compounds made with Dimethyl sulfoxide (DMSO, Sigma, Cat. D2650) were further diluted with the same culture medium as described above before they were added to the cells to reach desired final compound concentrations and 1% DMSO concentration. Plates were then incubated at 37° C. for another 5 days before measurement of HBeAg level and cell viability. Extracellular HBeAg level were measured with enzyme-linked immunosorbent assay (ELISA) kit (Shanghai Kehua Diagnostic Medical Products Co., Ltd). Cell viability was assessed using Cell Counting Kit-8 (Donjindo, Cat. CK04-20). IC50 values were derived from the dose-response curve using 4 parameter logistic curve fit method.
# The compounds of the present invention were tested for their capacity to inhibit extracellular HBeAg level as described herein.
# [2] = system: cccDNA level in HepDES19 cells; assay: cccDNA Southern Blot assay; type: cell-based, HBV; conditions: 5 days' compound treatment, Hirt DNA, serial dilutions
# Method: HepDES19 cells were seeded at 4×10^6 cells per T150 in the culture medium (Dulbecco's Modified Eagle Medium: Nutrient Mixture F-12 (DMEM:F12, Gibco Cat. 11320-82), 10% Fetal Bovine Serum (FBS, Clontech Cat. 631101), 0.1 mM Non-Essential Amino Acids Solution (NEAA, Gibco Cat. 11140-050), […] Penicillin-Streptomycin (PS, Invitrogen Cat. 15140-163), 500 μg/mL Geneticin (G418, Invitrogen Cat. 10131-027) in the absence of Tet for 8 days. These cells were seeded at the density of 1×10^6 cells per well in 6-well plate. At 24 hrs after seeding, serial dilutions of compounds made with DMSO (Sigma, Cat. D2650) were further diluted with the same culture medium as described above before they were added to the cells to reach desired final compound concentrations and 1% DMSO concentration. After 5 days' compound treatment, the cells growing in one well from 6-well plate were re-suspended with 500 μL re-suspension buffer (50 mM tris[hydroxymethyl]aminomethane pH 7.5), 10 mM ethylenediaminetetraacetic acid (EDTA), 50 μg/mL RNase A (Qiagen, Cat. 158922). 500 μL of 1.2% sodium dodecyl sulfate (SDS) was then added into the re-suspended cells to lyse the cells. After 15 minutes' incubation, 700 μL precipitation buffer (3M cesium chloride, 1M potassium acetate, 0.67M acetic acid) was added and the lysate was incubated at 4° C. for 2 h. The lysate was centrifuged at 15000 revolutions per minute (RPM) at 4° C. for 15 minutes. The supernatant was collected and loaded onto Qiagen miniprep columns (QIAprep spin Mini prep kit, Cat. No. 27016). After centrifugation for 1 minute at 15000 RPM, the column was washed once with 750 µL wash buffer PE from QIAprep spin Mini prep kit. 80 μL of double distilled water was loaded to the columns to elute Hirt DNA.
# Hirt DNA of each sample was loaded into 1.2% lx tris-acetate electrophoresis (TAE) agarose gel and separated at 90 voltages for 3 hours. The gel was then treated in 50 mM NaAc—HAc, pH4.2 for 30 min at room temperature (RT), and then denatured by soaking in denaturation buffer (0.5 M sodium hydroxide, 1.5 M sodium chloride) at RT for 30-45 min. The gel was then treated with neutralization buffer (1M tris[hydroxymethyl]aminomethane pH7.4 and 1.5M NaCl) at RT for 30 to 45 min.
# The gel was transferred onto a pre-wet Nylon membrane (GE life science, Hybond N+) by capillary transfer method overnight, followed by UV crosslinking. The membrane was transferred into a hybridization tube, then rinsed with double distilled water at 60° C. for 5 mins. 10 mL of hybridization buffer (Lab kits, China) was added, the resulting sample was rotated in hybridization oven at 60° C. for 1 hour. Digoxigenin (DIG)-labelled HBV probe (SEQ ID NO: 1) was denatured at 95° C. for 10 minutes, and then 7 μL of denatured probe was added to the hybridization tube, which was rotated in hybridization oven at 60° C. overnight.
# On the second day, the membrane was washed according to the procedure of DIG wash and block buffer set kit (Roche, Cat. 11 585 762 001), and then incubated with 50 mL antibody solution (Antibody anti-Digoxigenin-AP Fab fragment (Roche Cat. 11093274910) diluted in fresh 1× blocking buffer at 1:10,000) for 1 hour. The membrane was washed with 50 mL washing buffer (1× Maleic buffer with 0.3% Tween-20) for 15 minutes twice, and equilibrated with 20 mL detection buffer (0.1M tris[hydroxymethyl]aminomethane pH9.5, 0.1M sodium chloride) for 5 minutes. CDP-Star substrate (Roche, Cat. 12041677001) was added to the membrane for 5 minutes, and then the membrane was scanned by Bio-Rad Visualize Image System (Biorad, ChemiDoc-MP, Serial No. 731BR00916).
structure (smiles),measurement,setting,value
"O=C(O)C1CCN(c2ccc3c(=O)c4cccc(Br)c4oc3c2)C1 (centres unmarked) [Example 7, 1-(5-bromo-9-oxo-xanthen-3-yl)pyrrolidine-3-carboxylic acid]",IC50,[1],3.56 µM
same,cccDNA level in HepDES19 cells (Southern Blot),[2],dose-dependently reduced cccDNA level
